Where two headings read alike, the source gives them in different places.
Key:
[1] = tested on: human breast cancer cell line (MCF-7 and MDA-MB-231); design: method as in PMID 26133068; conditions: cell line not specified (MCF-7 and MDA-MB-231 tested); cited from earlier work
[2] = tested on: MCF-7 human breast cancer cells; experiment: Cell viability (MTT) assay, MCF-7; assay type: cell-based
Procedure: (§1) The viability of MCF-7 breast cancer cells was measured by the method of Carmichael using 3-(4,5-dimethylthiazol-2-yl)-2,5-diphenyltetrazolium (Table 2). In terms of reduction in cell viability, the compounds rank in MCF-7 cells in the order chlorambucil > 4j > 4i > 4h > 4n > 4k > 4l > 4a > 4g > 4b–4f.
(§2) Cultured normal human skin fibroblasts and MCF-7 human breast cancer cells were maintained in DMEM supplemented with 10% fetal bovine serum (FBS), 50 U/cm^3 penicillin, and 50 μg/cm^3 streptomycin at 37 °C. Cells were cultured in Costar flasks and subconfluent cells were detached with 0.05% trypsin and 0.02% EDTA in calcium-free phosphate-buffered saline, counted in hemocytometers, and plated at 5 × 10^5 cells per well of 6-well plates (Nunc) in 2 cm^3 of growth medium (DMEM without phenol red with 10% CPSR1). Cells reached about 80% of confluency at day 3, and in most cases, such cells were used for the assays.
(§3) The assay was performed according to the method of Carmichael using 3-(4,5-dimethylthiazole-2-yl)-2,5-diphenyltetrazolium bromide (MTT). Confluent cells cultured for 24 h with various concentrations of studied compounds in 6-well plates were washed three times with PBS and then incubated for 4 h in 1 cm^3 of MTT solution (0.5 mg/cm^3 of PBS) at 37 °C in 5% CO2 in an incubator. The medium was removed and 1 cm^3 of […] HCl in absolute isopropanol was added to the cells attached. Absorbance of converted dye in the living cells was measured at a wavelength of 570 nm. Cell viability of breast cancer cells cultured in the presence of ligands was calculated as percentage of controlled cells.

[3] = tested on: MCF-7 breast cancer cells; experiment: DNA synthesis assay ([3H]-thymidine incorporation), MCF-7; assay type: cell-based, human
Procedure: We studied the effect of compounds 4a–4n and chlorambucil on DNA synthesis in MCF-7 breast cancer cells (Table 3).
as §2
MCF-7 cells were seeded in 6-well plates and were incubated with varying concentrations of […] or chlorambucil and 0.5 μCi of [^3H]-thymidine for 24 h at 37 °C [51]. The cells were then harvested by trypsinization, washed with cold phosphate-buffered saline, and centrifuged for 10 min at 1500 g several times (4–5) until the dpm in the washes were similar to the reagent control. Radioactivity was determined by liquid scintillation counting. [^3H]-thymidine uptake was expressed as dpm/well.

[4] = Cell viability (MTT) assay, fibroblasts; assay type: cell-based, human
Procedure: as §1, §2, §3

[5] = tested on: Fibroblasts; experiment: DNA synthesis assay ([3H]-thymidine incorporation), fibroblasts; assay type: cell-based, human; conditions: read-out: IC50 inhibition of [3H]-thymidine incorporation into DNA
[6] = tested on: normal human skin fibroblasts; experiment: Cell viability (MTT) assay, fibroblasts; assay type: cell-based
Procedure: as §1, §2, §3

[7] = Homo sapiens, MCF7, 24 h, read-out: IC50 cytotoxicity (cell viability, MTT)
[8] = Homo sapiens, MCF7, MCF-7 cells, 24 h, mean ± SD of four independent experiments, read-out: IC50 inhibition of [3H]-thymidine incorporation into DNA
[9] = Homo sapiens, Fibroblast, Fibroblasts, 24 h, mean ± SD of four independent experiments
[10] = MCF-7 cells, 24 h, mean ± SD of four independent experiments, read-out: IC50 inhibition of [3H]-thymidine incorporation into DNA
[11] = Fibroblasts, 24 h, mean ± SD of four independent experiments

Row | Compound | IC50 [3, 8] [µM] | IC50 [2, 7] [µM] | IC50 at 24 h ([4]; human) [µM] | IC50 [5, 9] [µM] | also measured
1 | c1ccc(-c2nnc(SSc3nnc(-c4ccccc4)c(-c4ccccc4)n3)nc2-c2ccccc2)cc1 [5,5′,6,6′-tetraphenylbis(1,2,4-triazin-3-yl)disulfane] |  |  |  |  | IC50 [1]: 25 µM
2 | c1ccc(SSc2nnc(-c3ccccc3)c(-c3ccccc3)n2)cc1 [Compound 4h, 5,6-Diphenyl-1,2,4-triazine-3-yl phenyl disulfide] | 68 ± 2 | 115 ± 2 | > 200 | > 200 | 
3 | CCCCSSc1nnc(-c2ccccc2)c(-c2ccccc2)n1 [Compound 4b, 5,6-Diphenyl-1,2,4-triazine-3-yl n-butyl disulfide] | > 200 | > 200 | > 200 | > 200 | 
4 | CCCCCSSc1nnc(-c2ccccc2)c(-c2ccccc2)n1 [Compound 4e, 5,6-Diphenyl-1,2,4-triazine-3-yl n-pentyl disulfide] | > 200 | > 200 | > 200 | > 200 | 
5 | CCCCCCCCCCCCSSc1nnc(-c2ccccc2)c(-c2ccccc2)n1 [Compound 4f, 5,6-Diphenyl-1,2,4-triazine-3-yl n-dodecyl disulfide] | > 200 | > 200 | > 200 | > 200 | 
6 | OCCCCCCCCCCCSSc1nnc(-c2ccccc2)c(-c2ccccc2)n1 [Compound 4g, 5,6-Diphenyl-1,2,4-triazine-3-yl 11-hydroxyundecyl disulfide] | 188 ± 1 | 197 ± 1 | > 200 | > 200 | 
7 | O=C(O)CCCc1ccc(N(CCCl)CCCl)cc1 [Chlorambucil, reference compound] |  | 97 ± 2 |  |  | IC50 ([3]; Homo sapiens, MCF7, read-out: IC50 inhibition of [3H]-thymidine incorporation into DNA): 47 ± 2 µM; IC50 at 24 h ([4]; normal human skin fibroblasts, 24 h, mean ± SD of four independent experiments, read-out: IC50 cytotoxicity (cell viability, MTT)): 150 ± 1 µM; IC50 ([5]; Homo sapiens, Fibroblast): 120 ± 1 µM
8 | 5,6-Diphenyl-1,2,4-triazine-3-yl tert-butyl disulfide [Compound 4d] |  |  |  |  | IC50 [2]: > 200 µM; IC50 [3, 10]: > 200 µM; IC50 [6]: > 200 µM; IC50 [5, 11]: > 200 µM
9 | 5,6-Diphenyl-1,2,4-triazine-3-yl isobutyl disulfide [Compound 4c] |  |  |  |  | IC50 [2]: > 200 µM; IC50 [3, 10]: > 200 µM; IC50 [6]: > 200 µM; IC50 [5, 11]: > 200 µM
10 | CC(C)SSc1nnc(-c2ccccc2)c(-c2ccccc2)n1 [Compound 4a, 5,6-Diphenyl-1,2,4-triazine-3-yl isopropyl disulfide] | 188 ± 2 | 190 ± 2 | > 200 | > 200 | 

More lines, main results first:

Row | IC50 [3, 8] [µM] | Compound | IC50 [2, 7] [µM] | IC50 at 24 h ([4]; human) [µM] | IC50 [5, 9] [µM] | also measured
11 | 59 ± 2 | COc1ccc(SSc2nnc(-c3ccccc3)c(-c3ccccc3)n2)cc1 [Compound 4j, 5,6-Diphenyl-1,2,4-triazine-3-yl 4-methoxyphenyl disulfide] | 102 ± 2 | > 200 | > 200 | 
12 | 83 ± 1 | Clc1ccc(SSc2nnc(-c3ccccc3)c(-c3ccccc3)n2)cc1 [Compound 4k, 5,6-Diphenyl-1,2,4-triazine-3-yl 4-chlorophenyl disulfide] | 121 ± 2 | > 200 | > 200 | 
13 | 75 ± 2 | c1ccc(-c2nnc(SSc3nc4ccccc4s3)nc2-c2ccccc2)cc1 [Compound 4n, 5,6-Diphenyl-1,2,4-triazine-3-yl benzothiazol-2-yl disulfide] | 119 ± 2 | > 200 | > 200 | 
14 | 142 ± 1 | O=[N+]([O-])c1ccc(SSc2nnc(-c3ccccc3)c(-c3ccccc3)n2)cc1 [Compound 4l, 5,6-Diphenyl-1,2,4-triazine-3-yl 4-nitrophenyl disulfide] | 140 ± 1 | > 200 | > 200 | 
15 | 60 ± 2 | Cc1ccc(SSc2nnc(-c3ccccc3)c(-c3ccccc3)n2)cc1 [Compound 4i, 5,6-Diphenyl-1,2,4-triazine-3-yl p-tolyl disulfide] | 108 ± 1 | > 200 | > 200 | 
